According to patent US12637430B2, “Interleukin-17 (IL-17) inhibitors” (priority 2020, dated 2026):

Legend:
human IL-17A = target: T1, human IL-17A (Homo sapiens, UniProt Q16552); assay: IL-17A enzyme-linked immunosorbent assay (competitive ELISA, IL-17A/IL-17R binding)
T1 construct: purchased Sino Biological Inc. 12047-H07B
T1 sequence (Q16552 24-155): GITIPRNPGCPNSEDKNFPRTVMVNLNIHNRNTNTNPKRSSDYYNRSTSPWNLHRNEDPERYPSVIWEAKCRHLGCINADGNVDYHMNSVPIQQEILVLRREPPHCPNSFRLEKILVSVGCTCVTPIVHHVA
Method: The inhibition of receptor-ligand binding by human IL-17A inhibitors was quantified by competitive ELISA. 0.2 μg/mL of IL-17A (Sino Biological Inc. Cat #12047-H07B) was added in a 96-well plate at 100 μl per well for incubation for 30 min under 37° C. The 96-well plate was washed with PBST (PBS, 0.05% Tween-20) at 200 μl per well for 4 times, and then added with 200 μl of 5% skim milk and placed on a shaker for incubation at 25° C. for 30 min. The compound to be tested was prepared at 100× concentration ranging from 0.003 μM to 30 μM. After washed with PBST (PBS, 0.05% Tween-20) 4 times, the plate was added with 89 μl of PBST and 1 μl of the compound to be tested at 100× concentration followed by uniformly mixing and pre-incubation at 25° C. for 10 min. Then the plate was added with 10 μl of 16 nM IL-17R, and incubated on a shaker at 25° C. for 30 min. After washed for 4 times, the plate was added with 100 μl of anti-Fc-tag horseradish peroxidase (HRP)-conjugated antibody, and incubated on a shaker at 25° C. for 30 min. After washed 4 times, the plate was added with 100 μl of 3,3′, 5,5″-tetramethylbenzidine (TMB) substrate solution, and incubated at 25° C. in the dark. Then the plate was added with 20% HCl, followed by detection of the light absorption value at a wavelength of 450 nm by a microplate reader. The compounds prepared in the above examples were tested for human IL-17A inhibitory activity according to the above method.

human IL-17A protein = target: T2, human IL-17A protein (Homo sapiens, UniProt Q16552); assay: Inhibition of chemokine GROα/CXCL1 generation induced by human IL-17A protein in HT-29 cell; format: cell-based
T2 construct: purchased R&D 317-ILB
T2 sequence (Q16552 20-155 limits assumed): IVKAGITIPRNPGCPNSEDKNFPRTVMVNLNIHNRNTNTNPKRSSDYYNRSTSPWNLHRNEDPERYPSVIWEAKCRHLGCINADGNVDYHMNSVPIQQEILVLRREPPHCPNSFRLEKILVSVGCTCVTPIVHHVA
Method: HT-29 (Zhongyuan Gongchuang Technology Co., Ltd. of Chengdu, Sichuan) was added to a 96-well plate at 5×10^4 cells/well, and cultured overnight in a incubator at 37° C. A mixture of 30 ng/mL of human IL-17A protein (R&D, #317-ILB) and IL-17A small molecule inhibitors with gradient concentrations or 0.3 μg/mL of positive control IL-17A antibody (R&D, #AF-317-NA) was incubated at 37° C. for 1 h, and then added to the above-mentioned 96-well plate, and incubated with HT-29 cells at 37° C. for 48 hours. Then the GROα level in the cell culture supernatant was detected by an ELISA kit (Cisbio, #62HCXC1PEG) of the GROα.
According to the methods described in Experimental Examples 1 and 2, the compounds prepared in the above-mentioned examples were subjected to the experiment on inhibition of chemokine GROα/CXCL1 generation induced by human IL-17A protein in HT-29 cell.

## Cn1nccc1C(=O)N[C@H](C(=O)Nc1ccc(C2CCOCC2)cc1)C(C1CCC1)C1(C)CC1 (stereo partly shown) [Compound 2]
Human IL-17A
  IC50: 66 nM
Human IL-17A protein
  IC50: 555 nM

## Cn1nccc1C(=O)N[C@H](C(=O)Nc1ccc(C2CCOCC2)cn1)C(C1CCC1)C1(C)CC1 (stereo partly shown) [Compound 3]
Human IL-17A
  IC50: 67 nM
Human IL-17A protein
  IC50: 1570 nM

## Cn1nccc1C(=O)N[C@H](C(=O)Nc1cnc(C2CCOCC2)c(F)c1)C(C1CCC1)C1(C)CC1 (stereo partly shown) [Compound 4]
Human IL-17A
  IC50: 64 nM
Human IL-17A protein
  IC50: 598 nM

## Cn1nccc1C(=O)N[C@H](C(=O)Nc1ccc(N2CCOCC2)nc1)C(C1CCC1)C1(C)CC1 (stereo partly shown) [Compound 8]
Human IL-17A
  IC50: 236 nM

## C[C@@H]1COCCN1c1ccc(NC(=O)[C@@H](NC(=O)c2ccnn2C)C(C2CCC2)C2(C)CC2)cn1 (stereo partly shown) [Compound 10]
Human IL-17A
  IC50: 41 nM
Human IL-17A protein
  IC50: 7400 nM

## C[C@H]1COCCN1c1ccc(NC(=O)[C@@H](NC(=O)c2ccnn2C)C(C2CCC2)C2(C)CC2)cn1 (stereo partly shown) [Compound 11]
Human IL-17A
  IC50: 56 nM
Human IL-17A protein
  IC50: 10800 nM

## CC(C)[C@H]1COCCN1c1ccc(NC(=O)[C@@H](NC(=O)c2ccnn2C)C(C2CCC2)C2(C)CC2)cn1 (stereo partly shown) [Compound 12]
Human IL-17A
  IC50: 40 nM
Human IL-17A protein
  IC50: 13600 nM

## CC(C)[C@@H]1COCCN1c1ccc(NC(=O)[C@@H](NC(=O)c2ccnn2C)C(C2CCC2)C2(C)CC2)cn1 (stereo partly shown) [Compound 13]
Human IL-17A
  IC50: 642 nM

## CC[C@H]1COCCN1c1ccc(NC(=O)[C@@H](NC(=O)c2ccnn2C)C(C2CCC2)C2(C)CC2)cn1 (stereo partly shown) [Compound 14]
Human IL-17A
  IC50: 21 nM
Human IL-17A protein
  IC50: 7270 nM

## CC[C@@H]1COCCN1c1ccc(NC(=O)[C@@H](NC(=O)c2ccnn2C)C(C2CCC2)C2(C)CC2)cn1 (stereo partly shown) [Compound 15]
Human IL-17A
  IC50: 49 nM
Human IL-17A protein
  IC50: 2820 nM

## C[C@@H]1CN(c2ccc(NC(=O)[C@@H](NC(=O)c3ccnn3C)C(C3CCC3)C3(C)CC3)cn2)CCO1 (stereo partly shown) [Compound 16]
Human IL-17A
  IC50: 100 nM
Human IL-17A protein
  IC50: 11700 nM

## Cn1nccc1C(=O)N[C@H](C(=O)Nc1ccc(N2CCOCC2C2CC2)nc1)C(C1CCC1)C1(C)CC1 (stereo partly shown) [Compound 17]
Human IL-17A
  IC50: 136 nM

## Cn1nccc1C(=O)N[C@H](C(=O)Nc1ccc(N2CCOC[C@H]2CO)nc1)C(C1CCC1)C1(C)CC1 (stereo partly shown) [Compound 18]
Human IL-17A
  IC50: 247 nM

## Cn1nccc1C(=O)N[C@H](C(=O)Nc1cnc(N2CCOCC2)c(F)c1)C(C1CCC1)C1(C)CC1 (stereo partly shown) [Compound 19]
Human IL-17A
  IC50: 73 nM
Human IL-17A protein
  IC50: 3160 nM

## CC1CN(C)CCN1c1ccc(NC(=O)[C@@H](NC(=O)c2ccnn2C)C(C2CCC2)C2(C)CC2)cn1 (stereo partly shown) [Compound 20]
Human IL-17A
  IC50: 9340 nM

## CCN1CCN(c2ccc(NC(=O)[C@@H](NC(=O)c3ccnn3C)C(C3CCC3)C3(C)CC3)cn2)[C@H](C)C1 (stereo partly shown) [Compound 21]
Human IL-17A
  IC50: 16900 nM

## CC(C)N1CCN(c2ccc(NC(=O)[C@@H](NC(=O)c3ccnn3C)C(C3CCC3)C3(C)CC3)cn2)C(C)C1 (stereo partly shown) [Compound 22]
Human IL-17A
  IC50: 13700 nM

## Cn1nccc1C(=O)N[C@H](C(=O)Nc1ccc2c(c1)NC(=O)C21CCOCC1)C(C1CCC1)C1(C)CC1 (stereo partly shown) [Compound 23]
Human IL-17A
  IC50: 43 nM
Human IL-17A protein
  IC50: 65 nM

## C[C@@H]1CN(c2ccc(NC(=O)[C@@H](NC(=O)c3ccnn3C)C(C3CCC3)C3(C)CC3)cn2)CCN1 (stereo partly shown) [Compound 24]
Human IL-17A
  IC50: > 40000 nM

## Cn1nccc1C(=O)N[C@H](C(=O)Nc1ccc2c(c1)NC(=O)C21CCOCC1)[C@H](c1ccccc1)C1(C)CC1 [Compound 25]
Human IL-17A
  IC50: 32 nM
Human IL-17A protein
  IC50: 420 nM

## Cn1nccc1C(=O)N[C@H](C(=O)Nc1ccc2c(c1)NC(=O)C21CCOCC1)[C@H](c1ccccc1Cl)C1(C)CC1 [Compound 26]
Human IL-17A
  IC50: 96 nM
Human IL-17A protein
  IC50: 250 nM

## CN1C(=O)C2(CCOCC2)c2ccc(NC(=O)[C@@H](NC(=O)c3ccnn3C)[C@H](c3ccccc3Cl)C3(C)CC3)cc21 [Compound 27]
Human IL-17A
  IC50: 104 nM
Human IL-17A protein
  IC50: 1080 nM

## Cn1nccc1C(=O)N[C@H](C(=O)Nc1ccc(C(C)(C)c2nnc(C3CCC3)o2)cc1)C(C1CCC1)C1(C)CC1 (stereo partly shown) [Compound 36]
Human IL-17A
  IC50: 1280 nM

## Cc1n[nH]c(C)c1-c1ccc(NC(=O)[C@@H](NC(=O)c2ccnn2C)C(C2CCC2)C2(C)CC2)cn1 (stereo partly shown) [Compound 37]
Human IL-17A
  IC50: 18 nM
Human IL-17A protein
  IC50: 257 nM

## Cc1n[nH]c(C)c1-c1ccc(NC(=O)[C@@H](NC(=O)c2ccnn2C)C(C2CC2)C2CC2)cn1 [Compound 38]
Human IL-17A
  IC50: 385 nM
Human IL-17A protein
  IC50: 4460 nM

## CCn1nccc1C(=O)N[C@H](C(=O)Nc1ccc(-c2c(C)n[nH]c2C)nc1)C(C1CC1)C1CC1 [Compound 39]
Human IL-17A
  IC50: 128 nM
Human IL-17A protein
  IC50: 514 nM

## Cc1n[nH]c(C)c1-c1ccc(NC(=O)[C@@H](NC(=O)c2ccnn2C(C)C)C(C2CC2)C2CC2)cn1 [Compound 40]
Human IL-17A
  IC50: 117 nM
Human IL-17A protein
  IC50: 781 nM

## Cc1nonc1C(=O)N[C@H](C(=O)Nc1ccc(-c2c(C)n[nH]c2C)nc1)C(C1CC1)C1CC1 [Compound 41]
Human IL-17A
  IC50: 1140 nM
Human IL-17A protein
  IC50: 1470 nM

## CCc1nocc1C(=O)N[C@H](C(=O)Nc1ccc(-c2c(C)n[nH]c2C)nc1)C(C1CC1)C1CC1 [Compound 42]
Human IL-17A
  IC50: 170 nM

## CCc1nonc1C(=O)N[C@H](C(=O)Nc1ccc(-c2c(C)n[nH]c2C)nc1)C(C1CC1)C1CC1 [Compound 43]
Human IL-17A
  IC50: 457 nM

## Cc1conc1C(=O)N[C@H](C(=O)Nc1ccc(-c2c(C)n[nH]c2C)nc1)C(C1CC1)C1CC1 [Compound 44]
Human IL-17A
  IC50: 2780 nM

## Cc1n[nH]c(C)c1-c1ccc(NC(=O)[C@@H](NC(=O)c2nocc2C(C)C)C(C2CC2)C2CC2)cn1 [Compound 45]
Human IL-17A
  IC50: 511 nM

## Cc1nocc1C(=O)N[C@H](C(=O)Nc1ccc(-c2c(C)n[nH]c2C)nc1)C(C1CC1)C1CC1 [Compound 46]
Human IL-17A
  IC50: 111 nM
Human IL-17A protein
  IC50: 856 nM

## Cc1n[nH]c(C)c1-c1ccc(NC(=O)[C@@H](NC(=O)c2ncnn2C)C(C2CC2)C2CC2)cn1 [Compound 47]
Human IL-17A
  IC50: 15500 nM

## Cc1n[nH]c(C)c1-c1ccc(NC(=O)[C@@H](NC(=O)c2nonc2C(C)C)C(C2CC2)C2CC2)cn1 [Compound 48]
Human IL-17A
  IC50: 157 nM
Human IL-17A protein
  IC50: 3030 nM

## Cc1n[nH]c(C)c1-c1ccc(NC(=O)[C@@H](NC(=O)c2ccn(C3CC3)n2)C(C2CC2)C2CC2)cn1 [Compound 49]
Human IL-17A
  IC50: 537 nM

## Cc1n[nH]c(C)c1-c1ccc(NC(=O)[C@@H](NC(=O)c2ccnn2C2CC2)C(C2CC2)C2CC2)cn1 [Compound 50]
Human IL-17A
  IC50: 27900 nM

## CCn1nccc1C(=O)N[C@H](C(=O)Nc1cnc(-c2c(C)n[nH]c2C)c(F)c1)C(C1CC1)C1CC1 [Compound 52]
Human IL-17A
  IC50: 98 nM
Human IL-17A protein
  IC50: 321 nM

## Cc1n[nH]c(C)c1-c1ccc(NC(=O)[C@@H](NC(=O)c2ccnn2C)C(C2CC2)C2(C)CC2)cn1 (stereo partly shown) [Compound 53]
Human IL-17A
  IC50: 55 nM
Human IL-17A protein
  IC50: 472 nM

## CCn1nccc1C(=O)N[C@H](C(=O)Nc1ccc(-c2c(C)n[nH]c2C)nc1)C(C1CC1)C1(C)CC1 (stereo partly shown) [Compound 54]
Human IL-17A
  IC50: 47 nM
Human IL-17A protein
  IC50: 238 nM

## Cc1nonc1C(=O)N[C@H](C(=O)Nc1ccc(-c2c(C)n[nH]c2C)nc1)C(C1CC1)C1(C)CC1 (stereo partly shown) [Compound 55]
Human IL-17A
  IC50: 53 nM
Human IL-17A protein
  IC50: 866 nM

## Cc1n[nH]c(C)c1-c1ccc(NC(=O)[C@@H](NC(=O)c2ccnn2C(C)C)C(C2CC2)C2(C)CC2)cn1 (stereo partly shown) [Compound 56]
Human IL-17A
  IC50: 35 nM
Human IL-17A protein
  IC50: 87 nM

## Cc1n[nH]c(C)c1-c1ncc(NC(=O)[C@@H](NC(=O)c2ccnn2C(C)C)C(C2CC2)C2(C)CC2)cc1F (stereo partly shown) [Compound 58]
Human IL-17A
  IC50: 42 nM
Human IL-17A protein
  IC50: 221 nM

## Cc1nonc1C(=O)N[C@H](C(=O)Nc1cnc(-c2c(C)n[nH]c2C)c(F)c1)C(C1CC1)C1(C)CC1 (stereo partly shown) [Compound 59]
Human IL-17A
  IC50: 87 nM
Human IL-17A protein
  IC50: 4680 nM

## Cn1nccc1C(=O)N[C@H](C(=O)Nc1ccc(N2CCOCC2)nc1)[C@H](c1ccccc1Cl)C1(C)CC1 [Compound 60]
Human IL-17A
  IC50: 327 nM
Human IL-17A protein
  IC50: 8020 nM

## Cn1nccc1C(=O)N[C@H](C(=O)Nc1ccc(C2CCOCC2)cc1)[C@H](c1ccccc1Cl)C1(C)CC1 [Compound 62]
Human IL-17A
  IC50: 56 nM
Human IL-17A protein
  IC50: 373 nM
